In patent US20180369327A1, “METHOD FOR TREATING OR PREVENTING OSTEOARTHRITIS” (Dong-A University Research Foundation for Industry-Academy …, priority 2017, published 2018):
Entries after “also recorded” stand apart in the source; their conditions may differ.

What was measured:
[1] = test system: rat articular chondrocytes; experiment: Cell viability assay (automated trypan blue exclusion); format: cell-based; details: n=4
Method: Rat articular chondrocytes for primary culture were isolated from knee joint cartilage slices by enzymatic digestion for 1 h with 0.2% type II collagenase (381 units/mg) in DMEM. After the isolated cells were collected by brief centrifugation, they were resuspended in DMEM supplemented with 10% (v/v) FBS, […] streptomycin and 50 units/ml penicillin (Gibco). The cells were plated on culture dishes at a density of 5×10^4 cells/cm^2. The medium was replaced every 2 days, and they reached confluence after approximately 5 days in culture. In each experiment, the cells from three animals were pooled and analyzed three times.
FFA were dissolved in absolute ethanol at a concentration of 500 mM and diluted to final concentrations of FFAs with the appropriate concentration of 1% (w/v) FFA-free BSA. Controls were incubated with equal concentrations of FFA-free BSA containing ethanol. To examine the effect of several chemicals, cells were pretreated with 150 μg/mL DRB or 30 μM cilostazol for 24 h or 25 ng/ml TNF-α for 3 h before FFA treatment.
siRNA transfection or combination treatment with FFAs. Transfection of siRNA was performed with the use of siPORT Amine and Opti-MEM media. Cells grown to a confluence of 40% to 50% in six-well plates were transfected with 100 nM final siRNA concentration per well. Transfection mixture was added to each well, and incubation occurred for 4 h. Then 2 ml of growth medium was added, and cells were incubated for another 20 h. After siRNA transfection medium was removed, each well was washed in PBS solution. Cells were treated with FFAs for 24 hours.
Recombinant adenoviral STAMP2 was prepared as described previously34. Cells (1×10^7) were infected with recombinant adenoviral STAMP2 at multiplicities of infection (MOI) of 500, 1000 and 1500 to the medium.
An automated trypan blue exclusion assay was undertaken. Total cells and trypan bluestained (i.e., nonviable) cells were counted, and the percentage of nonviable cells was calculated using the Vi-Cell cell counter (Beckman Coulter, Miami, Fla., USA).

STAMP2 = experiment: Western blot of STAMP2 protein in articular chondrocytes; format: cell-based, rat; details: 30 μM cilostazol, 1.5 mM oleate; n=4
Method: (§1) Rat articular chondrocytes for primary culture were isolated from knee joint cartilage slices by enzymatic digestion for 1 h with 0.2% type II collagenase (381 units/mg) in DMEM. After the isolated cells were collected by brief centrifugation, they were resuspended in DMEM supplemented with 10% (v/v) FBS, […] streptomycin and 50 units/ml penicillin (Gibco). The cells were plated on culture dishes at a density of 5×10^4 cells/cm^2. The medium was replaced every 2 days, and they reached confluence after approximately 5 days in culture. In each experiment, the cells from three animals were pooled and analyzed three times. FFA were dissolved in absolute ethanol at a concentration of 500 mM and diluted to final concentrations of FFAs with the appropriate concentration of 1% (w/v) FFA-free BSA. Controls were incubated with equal concentrations of FFA-free BSA containing ethanol. […] Cell (2×10^6) were washed twice with ice-cold PBS. Cells were resuspended in lysis buffer [200 ll of icecold solubilizing buffer (300 mM NaCl, 50 mM Tris-Cl (pH 7.6), 0.5% Triton X-100, protease inhibitor cocktail)] and incubated at 4° C. for 30 min. The lysates were centrifuged at 14,000 rpm for 20 min at 4° C. The protein concentrations of the cell lysates were measured with the Bradford protein assay reagent (Bio-Rad). Then, 50 μg of proteins was loaded onto 15 SDS-PAGE. The separated proteins were transferred to nitrocellulose membranes (Amersham Pharmacia Biotech, Piscataway, N.J., USA) and probed with each antibody. Immunostaining with the antibodies was carried out using the Super Signal West Pico enhanced chemiluminescence substrate and detected with LAS-3000PLUS.

FSP27 = experiment: Western blot of FSP27 protein in articular chondrocytes; format: cell-based, rat; details: 30 μM cilostazol, 1.5 mM oleate; n=4
Method: as §1

caspase-3 and -7 = experiment: Western blot of apoptosis-related factors (caspase-3 and -7 activation); format: cell-based, rat; details: 30 μM cilostazol, 1.5 mM oleate; n=4
Method: as §1, with “The lysates were centrifuged at 14,000 rpm for 20 min at 4° C.” left out, “Then, 50 μg of proteins was loaded onto 15 SDS-PAGE. The separated proteins were transferred to nitrocellulose membranes (Amersham Pharmacia Biotech, Piscataway, N.J., USA) and probed with each antibody.” left out

SMILES: O=C1CCc2cc(OCCCCc3nnnn3C3CCCCC3)ccc2N1 [cilostazol]
- influence on lipotoxicity of oleate/palmitate combination (viability) ([1]; 0.4 mM oleate with 0.6 or 1.6 mM palmitate): reciprocal influences on lipotoxicity
- effect on oleate-induced cell death (viability) ([1]; cilostazol pre-treatment, 1.5 mM oleate): prevented 1.5 mM oleate-induced cell death
- effect on oleate-induced downregulation of STAMP2 (STAMP2): completely reversed the downregulation of STAMP2 induced by oleate; also recorded: reversed the 1.5 mM oleate (O)-induced downregulation of STAMP2
- effect on oleate-induced downregulation of FSP27 (FSP27): prevented the 1.5 mM oleate-induced downregulation of FSP27
- effect on oleate-induced activation of caspase-3 and -7 (caspase-3 and -7): prevented
